Laboratory results from publication PMC4014703 (Pharmaceuticals, 2014).
Where a SMILES comes first, the peptide text is derived from it. Side-chain parts run from the residue outwards. [ ]: non-standard residue; d: D form. The star is where a group is joined. DOTA = O=C(O)CN1CCN(CC(=O)O)CCN(CC(=O)*)CCN(CC(=O)O)CC1; PEG6 = NCCOCCOCCOCCOCCOCCOCCC(=O)O; Tle = CC(C)(C)[C@H](N)C(=O)O; Nlys = NCCCCNCC(=O)O

What was measured:
in vivo = experiment: in vivo; design: species or system nude mice; conditions: nude, mouse, total radioactivity
Experimental: 10–14 days after inoculation of the HT29 cells (tumor weight: 200–700 mg), the mice (about 10–12 weeks old with about 35–40 g body weight) were used for biodistribution studies. […] They were sacrificed by cervical dislocation 1 h, 4 h and 24 h after injection. Tumors and other tissues (blood, lung, liver, kidneys, heart, spleen, brain, muscle, femur and intestine) were rapidly removed and weighed. Radioactivity of the dissected tissues was measured using a gamma counter (Wallac Wizard, Perkin Elmer). Results were expressed as percentage of injected dose per gram of tissue (% ID/g), and tumor-to-organ ratios were calculated. Two randomly chosen mice were used for the determination of nonspecific tracer uptake in vivo. […] These mice were sacrificed by cervical dislocation at 4 h post injection (p.i.) and organs and tissue were removed, weighed and counted as described above.

tumor = conditions: ^188Re-labeled peptide, day 6 after begin of treatment; cited from earlier work

Row | Compound | tissue to tissue ratio at 1 h (in vivo; iv) | tissue to tissue ratio at 24 h (in vivo; iv) | tissue uptake at 1 h (in vivo; iv) | tissue uptake at 24 h (in vivo; iv) | tissue uptake at 24 h (in vivo; iv, Accumulation in HT29 tumor) | tissue uptake at 1 h (in vivo; iv, Accumulation in kidney) | tissue uptake at 24 h (in vivo; iv, Radioactivity concentration in liver) | tissue uptake at 4 h (in vivo; Accumulation in HT29 tumor) | Tumor growth in tumor-bearing nude mice (tumor)
1 | CC(C)C[C@H](NC(=O)[C@@H](NC(=O)[C@H](Cc1ccc(O)cc1)NC(=O)[C@@H]1CCCN1C(=O)[C@H](CCCCN)NC(=O)CN(CCCCN)C(=O)[C@@H](N)CCCCNC(=O)CCOCCOCCOCCOCCOCCOCCNC(=O)CN1CCN(CC(=O)O)CCN(CC(=O)O)CCN(CC(=O)O)CC1)C(C)(C)C)C(=O)O [[^177Lu]NT127, metal not drawn] (H-K([PEG6-DOTA])[Nlys]KPY[Tle]L-OH) | 30 | 60 | 0.05 %ID/g | 0.01 %ID/g | 0.6 %ID/g | 38 ± 1 %ID/g | 0.4 %ID/g | 1.1 %ID/g | 
2 | (N^αHis)Ac-Arg-(N-CH3)-Arg-Pro-Dmt-Tle-Leu [NT-XIX] |  |  |  |  |  |  |  |  | decreased
